Experimental data taken from US20250241878A1, “TYROSINE AND RESVERATROL DERIVATIVES AS NOVEL MODULATORS OF CELLULAR SERINE ADP-RIBOSYLATION” (UNIVERSITY OF SOUTH CAROLINA, priority 2022, published 2025).
Read-outs that look alike come from different tables or passages of the source.

Assays:
Type in all cases: cell-based, rat
[1] = system: TyrRS; details: for effect on NMDA- and MPP+-mediated decrease of neuronal TyrRS: combination with NMDA or MPP+, 4 hr
Method: (§1) Primary cortical neurons were dissected from E18 Sprague Dawley rat pups in Hibernate E (BrainBits®) and dissociated using the Neural Tissue Dissociation kit (Miltenyi Biotec). Minced cortices were incubated in a pre-warmed enzyme mix at 37° C. for 15 min; tissues were then triturated and strained using a 40 μm cell strainer. After washing and centrifugation, neurons were seeded in 50 μg/ml poly-D-Lysine (Sigma-Aldrich) coated tissue culture plates. NBActive-1 medium (BrainBits®) supplemented with 100 U/ml of Penicillin-Streptomycin (Life Technologies™), 2 mM L-Glutamine (Life Technologies™), and 1×N21 supplement (R&D Systems™) was used as culture medium. For preparation of culture medium containing reduced tyrosine, the components of NBActive-1 medium were altered to combined with a reduced concentration of tyrosine, as mentioned in Table 1, and was supplemented with 100 U/ml of Penicillin-Streptomycin (Life Technologies™), 2 mM L-Glutamine (Life Technologies™), and 1×N21 supplement (R&D Systems™) to obtained culture medium with reduced tyrosine. Control (non-targeting), TyrRS, and PARP1 siRNAs were obtained from Invitrogen™ (#AM4635, s443, and s130207, respectively). Rat cortical neurons at 5 DIV were transfected with 75 nM control or TyrRS siRNA using DharmaFECT™ 3 Transfection Reagent. A second transfection was done two days later using 75 nM of TyrRS siRNA, followed by cell collection or assays after another 48 hr. For PARP1 siRNA, neurons at 7 DIV were transfected with 75 nM siRNA for both control and PARP1 siRNA.
(§2) Cultured neurons (DIV 9-10) were washed once with cold 1×PBS and lysed in cell lysis buffer (20 mM Tris-HCl (pH 7.5), 150 mM NaCl, 1 mM Na2EDTA, 1 mM EGTA, 1% Triton™, 2.5 mM sodium pyrophosphate, 1 mM beta-glycerophosphate, 1 mM Na3VO4, 1 μg/ml leupeptin supplemented with protease inhibitor). The lysates were centrifuged at 10,000 RPM for 15 mins at 4° C. to separate the chromatin-bound and soluble fractions. Lysates were quantified using Bio-Rad™ Protein Assay and equal amounts of protein were loaded onto a 4 to 12% gradient gel (Invitrogen™ NuPAGE™). Protein was transferred from the gel to 0.2 μm NC membranes at 25 V for 10 mins using transfer stacks (iBlot™ 2-Invitrogen™) and blocked with 5% non-fat milk in TBST (10 mM Tris-HCl pH 8.0, 150 mM NaCl, 0.01% Tween-20) for 1 hr before application of primary antibodies. Primary and secondary antibodies were incubated overnight at 4° C. and for 1 hr at room temperature, respectively. Immobilon® ECL Ultra Western HRP Substrate (WBULS0500, Millipore™) and a luminescent image analyzer (ChemiDoc™ Imaging System, Bio-Rad™) were used to detect proteins. Quantification of western blots was done using ImageJ (Version 1.53c).
(§3) Cultured cortical neurons (DIV 9-10) were fixed in 4% formaldehyde for 15 min, followed by permeabilization and blocking for 30 min in 5% BSA (PBS) and 0.1% Tween™ 20 at room temperature. Incubation with primary antibodies was done at 4° C. overnight. The names and dilutions of the primary antibodies used for IF are described in Table 3. Secondary antibodies were incubated for 1 hr at room temperature. Secondary antibodies used were Alexa Fluor® 647 (anti-chicken), Alexa Fluor® 555 (anti-mouse), Alexa Fluor® 488 (anti-rabbit) from Invitrogen™ at 1:1000 dilution. Coverslips were then mounted using DAPI (4′,6-diamidino-2-phenylindole)-supplemented mounting medium, ProLong™ Gold Antifade (Invitrogen™) and imaged with Leica DMI6000 epifluorescent microscope using oil immersion 63×/NA 1.4 objective. The quantification for total protein levels in neurons was done using ImageJ (version 1.53c), and imaging parameters were matched for exposure, gain, and offset.
(§4) The various compounds used for treatments and their stock concentrations in Table 4.

[2] = system: PheRSα/β; experiment: PheRSα/β protein levels in cortical neurons (Western blot)
Method: as §1, §2, §4

[3] = system: eEF2; experiment: eEF2 phosphorylation (p-eEF2) Western blot in cortical neurons; details: compound alone
Method: as §1, §2

[4] = system: 8-oxo-dG; experiment: 8-oxo-dG immunofluorescence in cortical neurons; details: for 8-oxo-dG (oxidative DNA damage marker): compound alone
Method: as §3

[5] = system: cortical neurons; experiment: Comet assay; details: for DNA damage, percentage (%) of DNA in the comet tail: compound alone
Method: The cells were harvested with a cell scraper using chilled PBS and counted. The comet assay (Trevigen®, Gaithersburg, MD) was performed according to standard methods using alkaline conditions. Electrophoresis was carried out at the rate of 1.0 V/cm for 20 min. The slides were removed from the electrophoresis chamber, washed twice in deionized water for 5 min and immersed in 70% ethanol for 5 min. Subsequently, the slides were dried at 37° C. for 30 min, DNA was stained with 50 μL of SYBR™ Gold dye (Fisher Scientific, 1:10000 in Tris-EDTA buffer, pH 7.5) for 20 min in the dark at room temperature and then analyzed using an epifluorescent microscope at 10× magnification. The images were scored for comet parameters, such as tail length and tail moment (product of % of DNA in the tail and tail length), using the TriTek CometScore™ Freeware v1.5 image analysis software.

[6] = system: histone H3-Ser10-ADP-ribosylation; experiment: Histone H3 serine-ADP-ribosylation immunoblot in cortical neurons; details: compound alone
Method: FIG. 5B presents representative immunoblots and quantification of histone H3-Ser10-ADP-ribosylation levels in cortical neurons (DIV9) using anti-H3-Ser10-ADPR antibody after treatment with D-tyrosine (2.5 and 5 mM).
as §2

[7] = system: neuronal chromatin; experiment: Chromatin fraction immunoblots of cortical neurons; details: compound alone
Method: as §2

SMILES	effect on NMDA- and MPP+-mediated decrease of neuronal TyrRS [1]	eEF2 phosphorylation (p-eEF2) [3]	8-oxo-dG (oxidative DNA damage marker) [4]	DNA damage, percentage (%) of DNA in the comet tail [5]	histone H3 serine-ADP-ribosylation [6]	PARylated proteins in the chromatin fraction [7]	association of PARP1 with the chromatin [7]	recruitment of ARH3 to the chromatin [7]	recruitment of PARP2, HPF1 and OGG1 to the chromatin [7]	further results
Oc1ccc(/C=C/c2cc(O)cc(O)c2)cc1 [trans-RSV, trans-resveratrol]	exacerbated it	increased p-eEF2 levels	caused the accumulation of γ-H2AX and 8-oxo-dG	significantly increased DNA damage	inhibiting histone H3 serine-ADP-ribosylation	increased the levels of PARylated proteins in the chromatin fraction	increased the association of PARP1 with the chromatin	differential effects on the recruitment of ARH3 to the chromatin	prevented their recruitment	TyrRS protein levels ([1]; high dose of trans-RSV (50 μM)): decreased it; TyrRS protein levels ([1]; low dose of trans-RSV (10 μm)): increased TyrRS; PheRSα levels ([2]; high concentration trans-RSV): decreased PheRSβ, not PheRSα levels; PheRSβ levels ([2]; high concentration trans-RSV): decreased PheRSβ
N[C@@H](Cc1ccc(O)cc1)C(=O)O [tyrosine, L-tyrosine]		inhibited eEF2	resulted in the accumulation	significantly increased DNA damage	inhibiting histone H3 serine-ADP-ribosylation		trapping of PARP1			time until TyrRS levels were restored ([1]; after tyrosine treatment): 16 to 24 h; TyrRS protein levels ([1]; compound alone, rat cortical neurons): decreased TyrRS; PheRSβ levels ([2]; compound alone): depleted PheRSβ; levels of PheRSβ ([2]; second statement of the same sentence, see doubts): did not affect the levels of PheRSβ
Oc1ccc(/C=C\c2cc(O)cc(O)c2)cc1 [cis-RSV, cis-resveratrol]	suppressed this effect	activated the dephosphorylation of eEF2		did not cause an increase in percentage of DNA in the comet tail	stimulated serine-ADP-ribosylation	activated the de-ADP-ribosylation of the chromatin fraction	resulted in its removal from the chromatin	differential effects on the recruitment of ARH3 to the chromatin	facilitated the recruitment of PARP2 along with other DNA repair factors such as HPF1 and OGG1 to the chromatin	TyrRS protein levels ([1]; cis-RSV 10-50 μM): increased TyrRS protein levels both in the nucleus and neurites; effect on trans-RSV- and tyrosine-mediated decrease in TyrRS levels ([1]; combination treatment): rescued the effects of trans-RSV and tyrosine-mediated decrease in TyrRS levels in a dose-dependent manner; effect on nelfinavir-mediated depletion of TyrRS ([1]; combination with nelfinavir): rescued; PheRSβ and PheRSα levels ([2]; low concentration cis-RSV): increased their levels; effect on tyrosine-induced accumulation of 8-oxo-dG ([4]; combination with tyrosine): rescued tyrosine-induced accumulation of γ-H2AX and 8-oxo-dG; effect on DNA damage caused by Tyr ([5]; combination with Tyr): attenuated the increase in DNA damage caused by Tyr; TyrRS in the chromatin fraction [7]: higher levels of TyrRS; recruitment of FEN1 to the chromatin [7]: decreased the recruitment of FEN1
